From patent publication US10538555B2, “Macrocyclic inhibitors of the PD-1/PD-L1 and CD80(B7-1)/PD-L1 protein/protein interactions” (BRISTOL-MYERS SQUIBB COMPANY, priority 2014, dated 2020)
*1 amine or outer side, *2 acyl side, *3 side chain or, on linkers, in order; H or OH if unused. Where a SMILES comes first, the peptide text is derived from it. Bridges are numbered along the chain shown (N, C = ends). [ ]: non-standard residue; d: D form. ξ: configuration not given here. Trp(1-CH2COOH) = N[C@@H](Cc1cn(CC(=O)O)c2ccccc12)C(=O)O; Lac(3-(indol-3-yl)) = O=C(O)[C@@H](O)Cc1c[nH]c2ccccc12; Phe(3,4,5-F3) = N[C@@H](Cc1cc(F)c(F)c(F)c1)C(=O)O; Phe(3,4-F2) = N[C@@H](Cc1ccc(F)c(F)c1)C(=O)O; NMePhe(4-F) = CN[C@@H](Cc1ccc(F)cc1)C(=O)O; d(cisHyp) = O=C(O)[C@H]1C[C@@H](O)CN1; Bta = N[C@@H](Cc1csc2ccccc12)C(=O)O; NMeY = CN[C@@H](Cc1ccc(O)cc1)C(=O)O; Hyp = O=C(O)[C@@H]1C[C@@H](O)CN1; NMeF = CN[C@@H](Cc1ccccc1)C(=O)O; X1 = O=C([C@H]1COCCN1[*:1])[*:2]; dNMeF = CN[C@H](Cc1ccccc1)C(=O)O; dHyp = O=C(O)[C@H]1C[C@H](O)CN1; NMehSer = CN[C@@H](CCO)C(=O)O; NMeNle = CCCC[C@H](NC)C(=O)O; dNle = CCCC[C@@H](N)C(=O)O; dPip = O=C(O)[C@H]1CCCCN1; hSer = N[C@@H](CCO)C(=O)O; NMeA = CN[C@@H](C)C(=O)O; Orn = NCCC[C@H](N)C(=O)O; dNMeA = CN[C@H](C)C(=O)O; Dab = NCC[C@H](N)C(=O)O; Dap = NC[C@H](N)C(=O)O; ξC = NC(CS)C(=O)O

target: T1, Human PD-L1/PD-1 (Homo sapiens, UniProt Q9NZQ7); assay: HTRF Human PD-L1/PD-1 binding assay (PD-1-Ig/PD-L1-His); settings: PD-L1-His 10 nM, PD-1-Ig 20 nM; class symbol; read-out: HTRF Human PD-L1/PD-1 Binding Assay IC50 Range
T1 construct: TVMV protease cleavage site (C); made in house; host or cells: HEK293T cells
T1 sequence (Q9NZQ7 with tags, fused parts or gaps): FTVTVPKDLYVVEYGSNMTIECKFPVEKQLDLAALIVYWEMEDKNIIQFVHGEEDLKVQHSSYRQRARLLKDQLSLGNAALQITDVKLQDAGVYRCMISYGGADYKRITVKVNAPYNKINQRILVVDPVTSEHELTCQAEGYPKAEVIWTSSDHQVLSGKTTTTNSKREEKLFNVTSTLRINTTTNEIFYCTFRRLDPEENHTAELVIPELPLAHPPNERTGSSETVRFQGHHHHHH
Method in brief: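 Competition of macrocyclic peptides for PD-1/PD-L1 binding measured by HTRF in dPBS containing 0.1% BSA and 0.05% Tween-20. Compound and PD-L1-His (10 nM final) incubated 15 min before PD-1-Ig (20 nM final) and a further 15 min.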

IC50 [nM] | SMILES
1 to 9.9 | CCCC[C@H]1C(=O)N2CCC[C@@H]2C(=O)N[C@@H](CC(=O)O)C(=O)N[C@@H](C(C)C)C(=O)N(C)[C@@H](Cc2ccccc2)C(=O)N[C@@H](CCCN)C(=O)N2CCC[C@@H]2C(=O)N[C@@H](Cc2c[nH]c3ccccc23)C(=O)N[C@@H](Cc2ccc(O)cc2)C(=O)N[C@@H](CC(C)C)C(=O)N[C@H](C(=O)NCC(N)=O)CSCC(=O)N[C@@H](Cc2ccccc2)C(=O)N(C)[C@@H](Cc2ccccc2)C(=O)N1C [Example 10103] ({CH2CO}-F[NMeF][NMeNle][dP]DV[NMeF][Orn][dP]WYLCG-NH2; thioether N-13)
10 to 99.9 | CCCC[C@H]1C(=O)N(C)[C@@H](C)C(=O)N[C@@H](CCCNC(=N)N)C(=O)NC(C(=O)NCC(N)=O)CSCC(=O)N[C@@H](Cc2ccc(O)cc2)C(=O)N(C)[C@@H](C)C(=O)N[C@@H](CC(N)=O)C(=O)N2CCC[C@H]2C(=O)N[C@@H](CO)C(=O)N[C@H](CC(C)C)C(=O)N2C[C@H](O)C[C@H]2C(=O)N[C@@H](Cc2c[nH]c3ccccc23)C(=O)N[C@@H](CO)C(=O)N[C@@H](Cc2c[nH]c3ccccc23)C(=O)N1C (stereo partly drawn) [Example 9115] ({CH2CO}-Y[NMeA]NPS[dL][Hyp]WSW[NMeNle][NMeA]R[ξC]G-NH2; thioether N-14)
1 to 9.9 | CCCC[C@H]1C(=O)N2C[C@H](O)C[C@@H]2C(=O)N[C@@H](CC(=O)O)C(=O)N[C@@H](C(C)C)C(=O)N(C)[C@@H](Cc2ccccc2)C(=O)N[C@@H](CCCN)C(=O)N2CCC[C@@H]2C(=O)N[C@@H](Cc2c[nH]c3ccccc23)C(=O)N[C@@H](Cc2ccc(O)cc2)C(=O)N[C@@H](CCO)C(=O)N[C@H](C(=O)NCC(N)=O)CSCC(=O)N[C@@H](Cc2cc(F)c(F)c(F)c2)C(=O)N(C)[C@@H](Cc2ccccc2)C(=O)N1C [Example 10152] ({CH2CO}-[Phe(3,4,5-F3)][NMeF][NMeNle][d(cisHyp)]DV[NMeF][Orn][dP]WY[hSer]CG-NH2; thioether N-13)
1 to 9.9 | CCCC[C@H]1C(=O)N2CCC[C@@H]2C(=O)N[C@@H](CO)C(=O)N[C@@H](C(C)C)C(=O)N(C)[C@@H](Cc2ccccc2)C(=O)N[C@@H](CC(=O)O)C(=O)N2CCCC[C@@H]2C(=O)N[C@@H](Cc2c[nH]c3ccccc23)C(=O)N[C@@H](Cc2ccc(O)cc2)C(=O)N[C@@H](CC(C)C)C(=O)N[C@H](C(=O)NCC(N)=O)CSCC(=O)N[C@@H](Cc2cc(F)c(F)c(F)c2)C(=O)N(C)[C@@H](Cc2ccc(F)cc2)C(=O)N1C [Example 10583] ({CH2CO}-[Phe(3,4,5-F3)][NMePhe(4-F)][NMeNle][dP]SV[NMeF]D[dPip]WYLCG-NH2; thioether N-13)
1 to 9.9 | CCCC[C@H]1C(=O)N2CCC[C@@H]2C(=O)N[C@@H](CC(=O)O)C(=O)N[C@@H](C(C)C)C(=O)N(C)[C@@H](Cc2ccccc2)C(=O)N[C@@H](CCC(=O)O)C(=O)N2CCOC[C@@H]2C(=O)N[C@@H](Cc2c[nH]c3ccccc23)C(=O)N[C@@H](Cc2ccc(O)cc2)C(=O)N[C@@H](CN)C(=O)N[C@H](C(=O)NCC(N)=O)CSCC(=O)N[C@@H](Cc2cc(F)c(F)c(F)c2)C(=O)N(C)[C@@H](Cc2ccc(F)cc2)C(=O)N1C [Example 10606] ({CH2CO}-[Phe(3,4,5-F3)][NMePhe(4-F)][NMeNle][dP]DV[NMeF]E[X1]WY[Dap]CG-NH2; thioether N-13)
1 to 9.9 | CCCC[C@H]1C(=O)N(C)[C@@H](CCCC)C(=O)N[C@@H](CCCNC(=N)N)C(=O)NC(C(=O)NCC(N)=O)CSCC(=O)N[C@@H](Cc2ccc(O)cc2)C(=O)N(C)[C@@H](C)C(=O)N[C@@H](CC(N)=O)C(=O)N2CCC[C@H]2C(=O)N[C@@H](CO)C(=O)N[C@@H](CCO)C(=O)N2CCC[C@H]2C(=O)N[C@@H](Cc2c[nH]c3ccccc23)C(=O)N[C@@H](CO)C(=O)N[C@@H](Cc2csc3ccccc23)C(=O)N1C (stereo partly drawn) [Example 10025] ({CH2CO}-Y[NMeA]NPS[hSer]PWS[Bta][NMeNle][NMeNle]R[ξC]G-NH2; thioether N-14)
1 to 9.9 | CCCC[C@H]1C(=O)N(C)[C@@H](CCCC)C(=O)N[C@@H](CCC(=O)O)C(=O)N[C@H](C(=O)NCC(N)=O)CSCC(=O)N[C@@H](Cc2ccc(OC)cc2)C(=O)N(C)[C@@H](C)C(=O)N[C@@H](CCN)C(=O)N2CCC[C@H]2C(=O)N[C@@H](CN)C(=O)N[C@@H](CCC(=O)O)C(=O)N2C[C@H](O)C[C@H]2C(=O)N[C@@H](Cc2c[nH]c3ccccc23)C(=O)N[C@@H](CCN)C(=O)N[C@@H](Cc2cn(CC(=O)O)c3ccccc23)C(=O)N1C [Example 7140] ({CH2CO}-Y(Me)[NMeA][Dab]P[Dap]E[Hyp]W[Dab][Trp(1-CH2COOH)][NMeNle][NMeNle]ECG-NH2; thioether N-14)
1000 to 10000 | CCCC[C@H]1C(=O)N[C@@H](CC(N)=O)C(=O)N2CCC[C@H]2C(=O)N[C@@H](CO)C(=O)N[C@@H](CCO)C(=O)N2CCC[C@H]2C(=O)N[C@@H](Cc2c[nH]c3ccccc23)C(=O)N[C@@H](CCO)C(=O)N[C@@H](Cc2c[nH]c3ccccc23)C(=O)N(C)[C@@H](C)C(=O)N(C)[C@@H](C)C(=O)N[C@@H](CCCN)C(=O)NC(C(=O)NCC(N)=O)CSCC(=O)N[C@@H](Cc2ccc(O)cc2)C(=O)N1C (stereo partly drawn) [Example 10216] ({CH2CO}-Y[NMeNle]NPS[hSer]PW[hSer]W[NMeA][NMeA][Orn][ξC]G-NH2; thioether N-14)
1 to 9.9 | CCCC[C@H]1C(=O)N(C)[C@@H](CCCC)C(=O)N[C@@H](CCN)C(=O)NC(C(=O)NCC(N)=O)CSCC(=O)N[C@@H](Cc2ccc(O)cc2)C(=O)N(C)[C@@H](C)C(=O)N[C@@H](CC(N)=O)C(=O)N2CCC[C@H]2C(=O)N[C@@H](CC(N)=O)C(=O)N[C@@H](CC(C)C)C(=O)N2C[C@H](O)C[C@H]2C(=O)N[C@@H](Cc2c[nH]c3ccccc23)C(=O)N[C@@H](CO)C(=O)N[C@@H](Cc2csc3ccccc23)C(=O)N1C (stereo partly drawn) [Example 9165] ({CH2CO}-Y[NMeA]NPNL[Hyp]WS[Bta][NMeNle][NMeNle][Dab][ξC]G-NH2; thioether N-14)
1000 to 10000 | CCCC[C@H]1NC(=O)[C@H](Cc2csc3ccccc23)NC(=O)[C@H](CO)NC(=O)[C@H](Cc2c[nH]c3ccccc23)OC(=O)[C@@H]2CCCN2C(=O)[C@H](CC(C)C)NC(=O)[C@H](Cc2cnc[nH]2)NC(=O)[C@@H]2CCCN2C(=O)[C@H](CC(N)=O)NC(=O)[C@H](C)N(C)C(=O)[C@H](Cc2ccc(O)cc2)NC(=O)CSCC(C(=O)NCC(N)=O)NC(=O)[C@H](CCCNC(=N)N)NC(=O)[C@H](CCCC)N(C)C1=O (stereo partly drawn) [Example 10122] ({CH2CO}-Y[NMeA]NPHLP[Lac(3-(indol-3-yl))]S[Bta][dNle][NMeNle]R[ξC]G-NH2; thioether N-14)
1 to 9.9 | COCC[C@H]1C(=O)N2C[C@@H](O)C[C@@H]2C(=O)N[C@@H](CC(=O)O)C(=O)N[C@@H](C(C)C)C(=O)N(C)[C@H](Cc2ccccc2)C(=O)N[C@@H](Cc2ccc(O)cc2)C(=O)N2C[C@@H](O)C[C@@H]2C(=O)N[C@@H](Cc2c[nH]c3ccccc23)C(=O)N[C@@H](Cc2ccc(O)cc2)C(=O)N[C@@H](CC(C)C)C(=O)N[C@H](C(=O)NCC(N)=O)CSCC(=O)N[C@@H](Cc2ccc(F)c(F)c2)C(=O)N(C)[C@@H](Cc2ccccc2)C(=O)N1C [Example 9234] ({CH2CO}-[Phe(3,4-F2)][NMeF][NMehSer](Me)[dHyp]DV[dNMeF]Y[dHyp]WYLCG-NH2; thioether N-13)
10 to 99.9 | CCCC[C@H]1C(=O)N2CCC[C@@H]2C(=O)N[C@@H](CC(=O)O)C(=O)N[C@@H](C(C)C)C(=O)N(C)[C@@H](Cc2ccccc2)C(=O)N[C@@H](CCN)C(=O)N2CCOC[C@@H]2C(=O)N[C@@H](Cc2c[nH]c3ccccc23)C(=O)N[C@@H](Cc2ccc(O)cc2)C(=O)N[C@@H](CC(C)C)C(=O)N[C@H](C(=O)NCC(N)=O)CSCC(=O)N[C@@H](Cc2cc(F)c(F)c(F)c2)C(=O)N(C)[C@@H](Cc2ccc(O)cc2)C(=O)N1C [Example 10622] ({CH2CO}-[Phe(3,4,5-F3)][NMeY][NMeNle][dP]DV[NMeF][Dab][X1]WYLCG-NH2; thioether N-13)
10 to 99.9 | CCCC[C@H]1C(=O)N2CCC[C@@H]2C(=O)N[C@@H](CC(=O)O)C(=O)N[C@@H](C(C)C)C(=O)N(C)[C@@H](Cc2ccccc2)C(=O)N[C@@H](CC(=O)O)C(=O)N2CCC[C@@H]2C(=O)N[C@@H](Cc2c[nH]c3ccccc23)C(=O)N[C@@H](Cc2ccc(O)cc2)C(=O)N[C@@H](CCCCN)C(=O)N[C@H](C(=O)NCC(N)=O)CSCC(=O)N[C@@H](Cc2cc(F)c(F)c(F)c2)C(=O)N(C)[C@@H](Cc2ccccc2)C(=O)N1C [Example 10171] ({CH2CO}-[Phe(3,4,5-F3)][NMeF][NMeNle][dP]DV[NMeF]D[dP]WYKCG-NH2; thioether N-13)
1 to 9.9 | CCCC[C@H]1C(=O)N(C)[C@@H](CCCC)C(=O)N[C@@H](CCC(=O)O)C(=O)N[C@H](C(=O)NCC(N)=O)CSCC(=O)N[C@@H](Cc2ccc(O)cc2)C(=O)N(C)[C@@H](C)C(=O)N[C@@H](CC(N)=O)C(=O)N2CCC[C@H]2C(=O)N[C@@H](Cc2c[nH]cn2)C(=O)N[C@@H](CCC(=O)O)C(=O)N2C[C@H](O)C[C@H]2C(=O)N[C@@H](Cc2c[nH]c3ccccc23)C(=O)N[C@@H](CCN)C(=O)N[C@@H](Cc2c[nH]c3ccccc23)C(=O)N1C [Example 5190] ({CH2CO}-Y[NMeA]NPHE[Hyp]W[Dab]W[NMeNle][NMeNle]ECG-NH2; thioether N-14)
1 to 9.9 | CC(C)C[C@@H]1NC(=O)[C@H](Cc2ccc(O)cc2)NC(=O)[C@H](Cc2c[nH]c3ccccc23)NC(=O)[C@@H](C)N(C)C(=O)[C@H](Cc2ccc(O)cc2)NC(=O)[C@H](Cc2ccccc2)N(C)C(=O)[C@H](C(C)C)NC(=O)[C@H](CCC(=O)O)NC(=O)[C@@H](C)N(C)C(=O)[C@H](C)N(C)C(=O)[C@H](Cc2ccccc2)N(C)C(=O)[C@H](Cc2cc(F)c(F)c(F)c2)NC(=O)CSC[C@@H](C(=O)NCC(N)=O)NC1=O [Example 9189] ({CH2CO}-[Phe(3,4,5-F3)][NMeF][NMeA][dNMeA]EV[NMeF]Y[dNMeA]WYLCG-NH2; thioether N-13)
